Data as given in patent publication US8354455B2, “Prodrugs containing novel bio-cleavable linkers” (Piramal Enterprises Limited and Apparao Satyam, priority 2004, dated 2013).
Like-named read-outs stand apart in the source and are kept apart here.

Key:
[1] = In vitro plasma stability; format: in vitro ADME; details: rat plasma, 37° C., 30 minutes incubation, HPLC
Description: The compounds were extracted back into acetonitrile with rigorous vortex.

[2] = tested on: rats; details: rat, in vivo, po
[3] = tested on: carrageenan-induced rat paw edema; assay: Carrageenan-induced rat paw edema; format: in vivo; details: 75 mg/kg equivalent dose of aspirin, p.o.; for Rat paw edema (% inhibition) 1 hour / Rat paw edema (% inhibition) 2 hour / Rat paw edema (% inhibition) 4 hour / Rat paw edema (% inhibition) 6 hour: Mean ± SEM, n = 6
[4] = rat, in vivo, po; for salicylate release / absorption profile (in words): both, Sprague-Dawley, 35 mg/kg
[5] = tested on: convulsant metrazol; assay: scMET, rats p.o. (Test 3); format: in vivo; details: Test 3, rats p.o.
Experimental: Subcutaneous Metrazol Seizure Threshold Test (scMET): Subcutaneous injection of the convulsant metrazol produces clonic seizures in laboratory animals. […] Animals were pretreated with various doses of the test compound given by i.p. injection. At the previously determined Time to Peak Effect (TPE) of the test compound, the dose of metrazol which will produce convulsions in 97% of animals (CD97: 85 mg/kg in mice) was injected into a loose fold of skin in the midline of the neck. The animals were placed in isolation cages to minimize stress and observed for the next 30 minutes for the presence or absence of a seizure. An episode of clonic spasms, approximately […], of the fore and/or hind limbs, jaws, or vibrissae is taken as the end point.
Rats received test compounds orally.

[6] = tested on: mice
[7] = tested on: rats; assay: Neurotoxicity, rats p.o. (Test 2 and Test 3)
Description: Acute Toxicity—Minimal Motor Impairment (MMI): To assess a compound's undesirable side effects (toxicity), animals were monitored for overt signs of impaired neurological or muscular function.
Groups of at least 8 rats received various doses of the candidate compound until at least two points were established between the limits of 100 percent protection or toxicity and zero percent protection or minimal toxicity. The 95 percent confidence limits, slopes of the regression lines and standard errors of the slopes were calculated for each quantitative determination. Rats received test compounds orally.
This secondary evaluation determines the time to peak effect (TPE), neurotoxicity, median effective dose (ED50) and biological response.

[8] = tested on: MES-induced seizures; assay: Maximal Electroshock Test (MES), Test 1, mice i.p.; format: in vivo
[9] = tested on: MES-induced seizures; assay: animal or person; format: in vivo, rats
[10] = tested on: convulsant metrazol; assay: Subcutaneous Metrazol Seizure Threshold Test (scMET), Test 1, mice i.p.; format: in vivo; details: Mus musculus, ip, symbol = dose with activity
[11] = Test 2, rats p.o., 30 mg/kg, 1.00 h

## CC(=O)Oc1ccccc1C(=O)O [Aspirin, reference compound]
[1]
  release of parent drug / conversion to salicylate (in words): completely metabolized to salicylate
[2]; 100 mg/kg
  ulcers (in words): severe haemorrhagic lesions
[3]
  anti-inflammatory activity (in words): anti-inflammatory activity from 1 hr through 6 hr with peak maximal activity at 4 hr
  Rat paw edema (% inhibition) 1 hour: 31.0 ± 7.2%
  Rat paw edema (% inhibition) 2 hour: 52.5 ± 3.4%
  Rat paw edema (% inhibition) 4 hour: 60.7 ± 6.9%
  Rat paw edema (% inhibition) 6 hour: 42.8 ± 6.9%
[4]
  salicylate release / absorption profile (in words): highest during 0.5-6.0 hrs

## CCOC(=O)CC1(CNC(=O)OCCSSCCOC(=O)Nc2nnc(-c3cccc(Cl)c3Cl)c(N)n2)CCCCC1 [I-AA-MPD12]
[5]; 1.0 h
  ScMET (50 mg/kg) (number of animal protected/number of animal tested): 1/4
[5]; 2.0 h
  ScMET (50 mg/kg) (number of animal protected/number of animal tested): 0/4
[5]; 4.0 h
  ScMET (50 mg/kg) (number of animal protected/number of animal tested): 0/4
[5]; 6.0 h
  ScMET (50 mg/kg) (number of animal protected/number of animal tested): 1/4
[5]; 8.0 h
  ScMET (50 mg/kg) (number of animal protected/number of animal tested): 2/4
[5]; 24 h
  ScMET (50 mg/kg) (number of animal protected/number of animal tested): 0/4
[6]; Test 1, mice i.p.
  toxicity (in words): no or mild toxicity
[6]; mice, i.p., 0.5 h, symbol = dose with toxicity
  Rotorod Toxicity 0.5 h: — (— = no activity or no toxicity at 300 mg/kg)
[6]; mice, i.p., 4.0 h, symbol = dose with toxicity
  Rotorod Toxicity 4.0 h: — (— = no activity or no toxicity at 300 mg/kg)
[7]; [11]
  Toxicity (number of animals exhibiting toxicity/number of animals tested): 0/4
[7]; Test 2, rats p.o., 30 mg/kg, 2.00 h
  Toxicity (number of animals exhibiting toxicity/number of animals tested): 0/4
[7]; Test 2, rats p.o., 30 mg/kg, 4.00 h
  Toxicity (number of animals exhibiting toxicity/number of animals tested): 0/4
[7]; Test 3, rats p.o., 50 mg/kg, 1.0 h
  Toxicity (number of animals exhibiting toxicity/number of animals tested): 0/4 (50)
[7]; Test 3, rats p.o., 50 mg/kg, 2.0 h
  Toxicity (number of animals exhibiting toxicity/number of animals tested): 0/4 (50)
[7]; Test 3, rats p.o., 50 mg/kg, 4.0 h
  Toxicity (number of animals exhibiting toxicity/number of animals tested): 0/4 (50)
[7]; Test 3, rats p.o., 50 mg/kg, 6.0 h
  Toxicity (number of animals exhibiting toxicity/number of animals tested): 0/4 (50)
[7]; Test 3, rats p.o., 50 mg/kg, 8.0 h
  Toxicity (number of animals exhibiting toxicity/number of animals tested): 0/4 (50)
[7]; Test 3, rats p.o., 50 mg/kg, 24 h
  Toxicity (number of animals exhibiting toxicity/number of animals tested): 0/4 (50)
[8]; Mus musculus, ip, 0.5 h, read-out: MES 0.5 h, mice, i.p., 0.5 h, symbol = dose with activity
  minimal effective dose: > 300 mg/kg
[8]; Test 1, mice i.p.
  activity in MES model (in words): active in MES
[8]; mice, i.p., 6 h (footnotes g, m; printed in 4.0 h column)
  MES, at 6 hours after dosing: ++ (++ = activity or toxicity at 100 mg/kg)
[9]; Rattus norvegicus, po, MES model, rats p.o., at time of peak effect
  ED50: 17.1 mg/kg
[9]; [11]
  MES (number of animal protected/number of animal tested): 0/4
[9]; Test 3 ED50 quantification, rats p.o., 6 h, 60 mg/kg
  MES (number of animal protected/number of animal tested): 7/8
[9]; Test 3 time to peak effect, rats p.o., 15 mg/kg, 8.0 h
  MES (number of animal protected/number of animal tested): 1/4
[9]; Test 3 time to peak effect, rats p.o., 30 mg/kg, 0.5 h
  MES (number of animal protected/number of animal tested): 0/4
[9]; Test 3 time to peak effect, rats p.o., 30 mg/kg, 1.0 h
  MES (number of animal protected/number of animal tested): 0/4
[9]; Test 3 time to peak effect, rats p.o., 30 mg/kg, 2.0 h
  MES (number of animal protected/number of animal tested): 1/4
[9]; Test 3 time to peak effect, rats p.o., 30 mg/kg, 4.0 h
  MES (number of animal protected/number of animal tested): 3/4
[9]; Test 3 time to peak effect, rats p.o., 30 mg/kg, 8.0 h
  MES (number of animal protected/number of animal tested): 4/4
[9]; Test 3 time to peak effect, rats p.o., 30 mg/kg, 24 h
  MES (number of animal protected/number of animal tested): 2/4
[10]; 0.5 h, read-out: ScMET 0.5 h, mice, i.p., 0.5 h
  minimal effective dose: > 300 mg/kg
[10]; 4 h, read-out: ScMET 4.0 h, mice, i.p., 4.0 h
  minimal effective dose: > 300 mg/kg

## CC(=O)Oc1ccccc1C(=O)[N-]C(=O)OCCSSCCO[N+](=O)[O-].[Na+] [I-C1-NOPD5B]
[2]; 200 mg/kg
  ulcers (in words): none of the animals treated with the test compounds showed any signs of development of ulcers
[4]
  bioavailability compared with parent drug (in words): as bioavailable as its parent drug

## CC(=O)Oc1ccccc1C(=O)OCCSSCCO[N+](=O)[O-] [I-C1-NOPD4]
[1]
  release of parent drug / conversion to salicylate (in words): converting to the expected metabolite (salicylate)
[2]; 100 mg/kg
  ulcers (in words): none of the animals treated with the test compounds showed any signs of development of ulcers
[3]
  anti-inflammatory activity (in words): significant activity during the first two hours
  Rat paw edema (% inhibition) 1 hour: 42.4 ± 13.3%
  Rat paw edema (% inhibition) 2 hour: 44.9 ± 12.9%
  Rat paw edema (% inhibition) 4 hour: 24.3 ± 7.7%
  Rat paw edema (% inhibition) 6 hour: 8.6 ± 5.1%
[4]
  salicylate release / absorption profile (in words): released in a sustained and controlled manner starting from 1 hour through 12 hours
